Assay results taken from patent US20260232625A1, “NOVEL DECURSIN DERIVATIVE AND USE THEREOF FOR PREVENTING OR TREATING NON-SMALL CELL LUNG CANCER” (JAEIN R&P INC., priority 2023, published 2026).

Tested on: A549
Test: MTT cytotoxicity evaluation against A549 cells
Type: cell-based, human
Conditions: Homo sapiens, A549, 48 h, 48 hours
Protocol: A549 (human lung cancer cells) were obtained from the American Type Culture Collection (ATCC) and used. The cells were cultured in a medium containing 10% FBS, 1% penicillin (10,000 units/mL), and streptomycin (10 mg/mL), or in Dulbecco's Modified Eagle's Medium (DMEM), at 37° C. under 5% CO2 conditions.
To measure cytotoxicity, an MTT assay was used. Specifically, A549 cells cultured according to Experimental Example 1 were seeded into a 96-well plate at a density of 2.5×10^4 cells/mL in 100 μL, and incubated for 24 hours. Thereafter, the cells were treated with either the compounds prepared according to Examples 1 to 27 or, as comparative agents, decursin or docetaxel. The prepared compounds and decursin were each administered to the A549 cell line at concentrations of 0 μM (untreated), 12.5 μM, 25 μM, 50 μM, 100 μM, and 200 μM, while docetaxel was administered at concentrations of 0 nM (untreated), 0.1 nM, 1 nM, 10 nM, 100 nM, and 1,000 nM, followed by incubation for an additional 48 hours. Then, 20 μL of MTT solution was added (Method 1). Alternatively, the compounds prepared according to Examples 28 to 30, the compound of Example 5 as a reference compound or, as comparative agents, decursin or docetaxel, were used. The prepared compounds, the compound of Example 5, and decursin were each administered at concentrations of 0 μM (untreated), 3.125 μM, 6.25 μM, 12.5 μM, 25 μM, and 50 μM, while docetaxel was administered at concentrations of 0 nM (untreated), 0.6 nM, 1.25 nM, 2.5 nM, 5 nM, and 10 nM, and treated in the same manner as described in Method 1 (Method 2). The cells treated with MTT solution were incubated for 2 hours, the medium was removed, and the formazan blue crystals formed by the cells were treated with an MTT lysis buffer, followed by incubation in a cell incubator for 24 hours. The MTT lysis buffer was prepared by mixing N,N-dimethylformamide with water in a 1:1 ratio to give a solution containing 20% SIDS (sodium dodecyl sulfate) at the final concentration. The optical density at 590 nm was measured using a microplate reader (FIGS. 1a to 1d). Based on the measured values, the cytotoxicity (IC50) against A549 was calculated, and the results are disclosed in Table 1 together with the structural formulae.

[1] = Method 2 (marked *): 3.125-50 μM

SMILES | IC50 (Method 1: 12.5-200 μM) [µM] | IC50 [1] [µM]
CC(C)=CC(=O)O[C@H]1Cc2cc3ccc(=O)oc3cc2OC1(C)C [Decursin, decursin] | 43.6 | 30.4
CC1(C)Oc2cc3oc(=O)ccc3cc2C[C@@H]1OC(=O)CCn1ccnc1 [Example 1, (S)-2,2-dimethyl-8-oxo-2,3,4,8-tetrahydropyrano[3,2-g]chromen-3-yl 3-(1H-imidazol-1-yl)propanoate] | > 200 | 
CC1(C)Oc2cc3oc(=O)ccc3cc2C[C@@H]1OC(=O)CCc1ccccn1 [Example 2, (S)-2,2-dimethyl-8-oxo-2,3,4,8-tetrahydropyrano[3,2-g]chromen-3-yl 3-(pyridin-2-yl)propanoate] | > 200 | 
CC1(C)Oc2cc3oc(=O)ccc3cc2C[C@@H]1OC(=O)/C=C/c1ccccn1 [Example 3, (S,E)-2,2-dimethyl-8-oxo-2,3,4,8-tetrahydropyrano[3,2-g]chromen-3-yl 3-(pyridin-2-yl)acrylate] | 113 | 
C/C(=C\c1ccccc1)C(=O)O[C@H]1Cc2cc3ccc(=O)oc3cc2OC1(C)C [Example 4, (S,E)-2,2-dimethyl-8-oxo-2,3,4,8-tetrahydropyrano[3,2-g]chromen-3-yl 2-methyl-3-phenylacrylate] | 80.7 | 
CC1(C)Oc2cc3oc(=O)ccc3cc2C[C@@H]1OC(=O)CCc1ccc2c(c1)OCO2 [Example 6, (S)-2,2-dimethyl-8-oxo-2,3,4,8-tetrahydropyrano[3,2-g]chromen-3-yl 3-(benzo[d][1,3]dioxol-5-yl)propanoate] | ≥ 219 | 
CC1(C)Oc2cc3oc(=O)ccc3cc2C[C@@H]1OC(=O)/C=C/c1ccc2c(c1)OCO2 [Example 7, (S,E)-2,2-dimethyl-8-oxo-2,3,4,8-tetrahydropyrano[3,2-g]chromen-3-yl 3-(benzo[d][1,3]dioxol-5-yl)acrylate] | > 200 | 
CN(C)S(=O)(=O)c1ccc(/C=C/C(=O)O[C@H]2Cc3cc4ccc(=O)oc4cc3OC2(C)C)cc1 [Example 8, (S,E)-2,2-dimethyl-8-oxo-2,3,4,8-tetrahydropyrano[3,2-g]chromen-3-yl 3-(4-(N,N-dimethylsulfamoyl)phenyl)acrylate] | > 200 | 
CC1(C)Oc2cc3oc(=O)ccc3cc2C[C@@H]1OC(=O)/C=C/c1ccc(C(F)(F)F)cc1 [Example 9, (S,E)-2,2-dimethyl-8-oxo-2,3,4,8-tetrahydropyrano[3,2-g]chromen-3-yl 3-(4-(trifluoromethyl)phenyl)acrylate] | > 200 | 
CC1(C)Oc2cc3oc(=O)ccc3cc2C[C@H]1OC(=O)CCn1ccnc1 [Example 10, (R)-2,2-dimethyl-8-oxo-2,3,4,8-tetrahydropyrano[3,2-g]chromen-3-yl 3-(1H-imidazol-1-yl)propanoate] | > 200 | 
CC1(C)Oc2cc3oc(=O)ccc3cc2C[C@H]1OC(=O)CCc1ccccn1 [Example 11, (R)-2,2-dimethyl-8-oxo-2,3,4,8-tetrahydropyrano[3,2-g]chromen-3-yl 3-(pyridin-2-yl)propanoate] | > 200 | 
CC1(C)Oc2cc3oc(=O)ccc3cc2C[C@H]1OC(=O)/C=C/c1ccccn1 [Example 12, (R,E)-2,2-dimethyl-8-oxo-2,3,4,8-tetrahydropyrano[3,2-g]chromen-3-yl 3-(pyridin-2-yl)acrylate] | 184 | 
C/C(=C\c1ccccc1)C(=O)O[C@@H]1Cc2cc3ccc(=O)oc3cc2OC1(C)C [Example 13, (R,E)-2,2-dimethyl-8-oxo-2,3,4,8-tetrahydropyrano[3,2-g]chromen-3-yl 2-methyl-3-phenylacrylate] | 108 | 
CC1(C)Oc2cc3oc(=O)ccc3cc2C[C@H]1OC(=O)/C=C/c1ccoc1 [Example 14, (R,E)-2,2-dimethyl-8-oxo-2,3,4,8-tetrahydropyrano[3,2-g]chromen-3-yl 3-(furan-3-yl)acrylate] | 152 | 
CC1(C)Oc2cc3oc(=O)ccc3cc2C[C@H]1OC(=O)CCc1ccc2c(c1)OCO2 [Example 15, (R)-2,2-dimethyl-8-oxo-2,3,4,8-tetrahydropyrano[3,2-g]chromen-3-yl 3-(benzo[d][1,3]dioxol-5-yl)propanoate] | > 200 | 
CC1(C)Oc2cc3oc(=O)ccc3cc2C[C@H]1OC(=O)/C=C/c1ccc2c(c1)OCO2 [Example 16, (R,E)-2,2-dimethyl-8-oxo-2,3,4,8-tetrahydropyrano[3,2-g]chromen-3-yl 3-(benzo[d][1,3]dioxol-5-yl)acrylate] | > 200 | 
CN(C)S(=O)(=O)c1ccc(/C=C/C(=O)O[C@@H]2Cc3cc4ccc(=O)oc4cc3OC2(C)C)cc1 [Example 17, (R,E)-2,2-dimethyl-8-oxo-2,3,4,8-tetrahydropyrano[3,2-g]chromen-3-yl 3-(4-(N,N-dimethylsulfamoyl)phenyl)acrylate] | > 200 | 
CC1(C)Oc2cc3oc(=O)ccc3cc2C[C@H]1OC(=O)/C=C/c1ccc(C(F)(F)F)cc1 [Example 18, (R,E)-2,2-dimethyl-8-oxo-2,3,4,8-tetrahydropyrano[3,2-g]chromen-3-yl 3-(4-(trifluoromethyl)phenyl)acrylate] | 172 | 
CC1(C)Oc2cc3oc(=O)ccc3cc2[C@@H](NC(=O)CCn2ccnc2)[C@@H]1O [Example 19, N-((3S,4R)-3-hydroxy-2,2-dimethyl-8-oxo-2,3,4,8-tetrahydropyrano[3,2-g]chromen-4-yl)-3-(1H-imidazol-1-yl)propanamide] | > 200 | 
CC1(C)Oc2cc3oc(=O)ccc3cc2[C@@H](NC(=O)CCc2ccccn2)[C@@H]1O [Example 20, N-((3S,4R)-3-hydroxy-2,2-dimethyl-8-oxo-2,3,4,8-tetrahydropyrano[3,2-g]chromen-4-yl)-3-(pyridin-2-yl)propanamide] | > 200 | 
CC1(C)Oc2cc3oc(=O)ccc3cc2[C@@H](NC(=O)/C=C/c2ccccn2)[C@@H]1O [Example 21, (E)-N-((3S,4R)-3-hydroxy-2,2-dimethyl-8-oxo-2,3,4,8-tetrahydropyrano[3,2-g]chromen-4-yl)-3-(pyridin-2-yl)acrylamide] | > 200 | 
C/C(=C\c1ccccc1)C(=O)N[C@@H]1c2cc3ccc(=O)oc3cc2OC(C)(C)[C@H]1O [Example 22, (E)-N-((3S,4R)-3-hydroxy-2,2-dimethyl-8-oxo-2,3,4,8-tetrahydropyrano[3,2-g]chromen-4-yl)-2-methyl-3-phenylacrylamide] | > 200 | 
CC1(C)Oc2cc3oc(=O)ccc3cc2[C@@H](NC(=O)/C=C/c2ccoc2)[C@@H]1O [Example 23, (E)-3-(furan-3-yl)-N-((3S,4R)-3-hydroxy-2,2-dimethyl-8-oxo-2,3,4,8-tetrahydropyrano[3,2-g]chromen-4-yl)acrylamide] | > 200 | 
CC1(C)Oc2cc3oc(=O)ccc3cc2[C@@H](NC(=O)CCc2ccc3c(c2)OCO3)[C@@H]1O [Example 24, 3-(benzo[d][1,3]dioxol-5-yl)-N-((3S,4R)-3-hydroxy-2,2-dimethyl-8-oxo-2,3,4,8-tetrahydropyrano[3,2-g]chromen-4-yl)propanamide] | > 200 | 
CC1(C)Oc2cc3oc(=O)ccc3cc2[C@@H](NC(=O)/C=C/c2ccc3c(c2)OCO3)[C@@H]1O [Example 25, (E)-3-(benzo[d][1,3]dioxol-5-yl)-N-((3S,4R)-3-hydroxy-2,2-dimethyl-8-oxo-2,3,4,8-tetrahydropyrano[3,2-g]chromen-4-yl)acrylamide] | 151 | 
CN(C)S(=O)(=O)c1ccc(/C=C/C(=O)N[C@@H]2c3cc4ccc(=O)oc4cc3OC(C)(C)[C@H]2O)cc1 [Example 26, (E)-3-(4-(N,N-dimethylsulfamoyl)phenyl)-N-((3S,4R)-3-hydroxy-2,2-dimethyl-8-oxo-2,3,4,8-tetrahydropyrano[3,2-g]chromen-4-yl)acrylamide] | > 200 | 
CC1(C)Oc2cc3oc(=O)ccc3cc2[C@@H](NC(=O)/C=C/c2ccc(C(F)(F)F)cc2)[C@@H]1O [Example 27, (E)-N-((3S,4R)-3-hydroxy-2,2-dimethyl-8-oxo-2,3,4,8-tetrahydropyrano[3,2-g]chromen-4-yl)-3-(4-(trifluoromethyl)phenyl)acrylamide] | 73.4 | 
CC1(C)Oc2cc3oc(=O)ccc3cc2C[C@@H]1OC(=O)CCc1ccoc1 [Example 28, (S)-2,2-dimethyl-8-oxo-2,3,4,8-tetrahydropyrano[3,2-g]chromen-3-yl 3-(furan-3-yl)propanoate] |  | 96.1
CN(C)c1ccc(CC(=O)O[C@H]2Cc3cc4ccc(=O)oc4cc3OC2(C)C)cc1 [Example 29, (S)-2,2-dimethyl-8-oxo-2,3,4,8-tetrahydropyrano[3,2-g]chromen-3-yl 4-(dimethylamino)phenylacetate] |  | 52.4
